# Data published in a melting point compilation (Tetko et al.; mined from patent text by program, amines drawn as free bases though some values may be those of a salt).
row,SMILES,melting point
1,CN(Cc1cccc2c1CN(C1CCC(=O)NC1=O)C2=O)C(=O)Nc1ccccc1 (configuration not stated),186 to 188 °C
2,C=CCCCCCCCCC(O)CC(=O)O (configuration not stated),62 to 64 °C
3,Cc1ccc2cccc(OCc3cccc(NC(=O)CN4C(=O)c5ccccc5C4=O)c3C)c2n1,283 to 285 °C
4,Cc1ccc(C=Cc2ccc(Br)cc2)cc1,215 °C
5,CC(=O)OC1CSC(Oc2cc(C)c(-c3cccnc3)c(C)c2)C(OC(C)=O)C1OC(C)=O (configuration not stated),75 to 80 °C
6,CC(=O)Nc1cccc2c1CCNC2=O,244 to 246 °C
7,COCCOc1cc2ncc(C#N)c(Nc3ccc4cn[nH]c4c3)c2cc1OCCOC,105 to 110 °C
8,CN(Cc1ccc(C2=NCCN2)cc1)C(=O)OCc1ccccc1,84 °C
9,O=C(CN1CCC(Cc2ccccc2)CC1)Nc1ccc2c(c1)OCC(=O)N2,184 to 188 °C
10,CC(=O)OC1CCC2(C)C(CCC3=C4C(=O)CC(C(C)CCC=C(C)C)C4(C)CCC32)C1 (configuration not stated),129 to 130 °C
11,C=CCc1cc(F)ccc1OCCCN1CCC2(CC1)C(=O)NCN2c1ccccc1,110 to 113 °C
12,COc1cc2c(cc1Nc1ncc(Cl)c(Nc3ccc(C(N)=O)cc3OC)n1)CCN(CCS(C)(=O)=O)CC2,207 to 217 °C
13,C=C(C)c1cccc(C(C)(C)N=C=O)c1,60 to 62 °C
14,CC(=O)Nc1ccc2c(c1)OC(C)O2 (configuration not stated),155 to 156 °C
15,FC(F)(F)C(=C1SCCCS1)c1ccccc1,87 to 88 °C
16,O=C(O)CCOCCCc1ccc(-c2nc(=O)c3ccccc3s2)nc1,145 to 147 °C
17,CNS(=O)(=O)c1ccsc1C(=O)OC,115 to 122 °C
18,O=C1c2ccccc2-c2csc(N3C(=O)c4ccccc4C3=O)c21,197 to 199 °C
19,CCSc1cc(N)c([N+](=O)[O-])cc1N,142 °C
20,CC(C)c1cccc(COCCO)c1NC(=O)CC1c2ccccc2Oc2ccccc21,153 to 154 °C
21,N=C(N)NCCCCN[N+](=O)[O-],123 to 124 °C
22,CC(C)(C)OC(=O)Nc1cc(N2CCC3(CC2)OCCO3)c(-c2ccccc2F)cc1N,198 °C

# More lines, now with the values ahead:
row,melting point,SMILES
1,244 to 246 °C,Cn1ncnc1COc1nn2c(-c3ccccc3)nnc2cc1C12CCC(CC1)C2
2,184 to 193 °C,CC(CCCc1ccccc1)c1cc2oc(=O)c3c(c2cc1O)CCCC3 (configuration not stated)
3,143 to 146 °C,O=C1c2ccccc2CN1C1CCN(CCCCC2(C(=O)NCC(F)(F)F)c3ccccc3-c3ccccc32)CC1
4,265 to 267 °C,Cc1cc(N2CC=C(C(N)=O)CC2)c2c(C)c(C)n(-c3ccc(Cl)cc3Cl)c2n1
5,112 to 115 °C,O=Cc1ccc2nccc(Oc3ccccc3)c2c1
6,290 to 291 °C,O=c1cc(Nc2ccccc2)[nH]n1-c1ccc(S(=O)(=O)O)cc1
7,229 to 230 °C,Cc1ccc(C(=O)c2c(C)c(C(=O)O)c(CC(=O)O)n2C)cc1
8,82 to 84 °C,Nc1cc(Oc2cc(Oc3cc(N)cc(C(F)(F)F)c3)cc(C(F)(F)F)c2)cc(C(F)(F)F)c1
9,70 to 80 °C,COC1(c2cc(F)cc(OCc3nc(-c4ccccc4)c(-c4ccc(S(N)(=O)=O)cc4)o3)c2)CCOCC1
10,176 to 178 °C,CC(=O)OCc1c(Br)cccc1N1Cc2cc(C(C)(C)C)ccc2C1=O
11,115 to 116 °C,COc1ccc(CCC(=O)C2C(=O)C=C(C)OC2=O)cc1O (configuration not stated)
12,73 °C,COc1ccc2oc(CC3CCCCC3)c(CC#N)c2c1
13,313 °C,COc1ccc(-c2nnc3c4ccccc4c(Nc4ccc(NC(=O)c5ccc(N6CCOCC6)cc5)cc4)nn23)cc1
14,140 to 141 °C,CC(C)[Si](Oc1ccc([C@@H](O)[C@@H](C)N2CCC(O)(c3ccccc3)CC2)cc1F)(C(C)C)C(C)C (relative stereo)
15,53 °C,CN(C)Cc1ccc(CNC(=O)C2Cc3ccccc3N2S(=O)(=O)c2ccc(-c3ccccc3C(F)(F)F)cc2)cc1 (configuration not stated)
